According to patent US20220155314A1, “TROPHOBLAST STEM CELL, METHODS OF PREPARATION AND USES THEREOF” (Academia Sinica, priority 2020, published 2022):
Residues, ends and D or L forms follow the SMILES beside them. *: point of attachment. Cbz = O=C(OCc1ccccc1)*

Tests used:
BeWo cells = test: Expression of trophoblast stemness and differentiation genes in BeWo cells treated with EGF and chemical inhibitors; format: cell-based, human; conditions: 1 mM VPA with 20 μM MG132, 8 h (FIG. 6G)
Description: FIGS. 6A to 6I show the regulation of trophoblast stemness and differentiation by antagonism between ΔNp63α and GCM1. […] ITGA6-positive term CTBs were cultured in complete TS medium for 5 days and then maintained in the same medium or incomplete medium (vehicle alone without EGF and chemical inhibitors) for an additional 7 days. Cells were subjected to immunofluorescence microscopy of ΔNp63α, GCM1, and hCGβ. […] BeWo cells were incubated in complete or incomplete TS medium supplemented with the indicated growth factor or chemical inhibitor(s) for 24 h. Cells were harvested for quantitative RT-PCR analysis of the indicated stemness or differentiation genes. […] BeWo cells were treated with the indicated concentration of VPA for 24 hours and then harvested for immunoblotting and quantitative RT-PCR analyses of GCM1, ΔNp63α, and hCGβ. […] BeWo cells were transfected with 4XCSL-luciferase in the presence or absence of 2 mM VPA for 48 hours, followed by luciferase assays. […] 293T cells were transfected with pHA-GCM1 and pNotch1IC-FLAG for 48 hours, followed by coimmunoprecipitation analysis and confocal microscopy using FLAG and HA mAbs and GCM1 Ab. […] EGFP-positive mock or Notch1IC-FLAG-expressing BeWo cells were treated with or without 50 μM FSK for 24 h, followed by immunoblotting and quantitative RT-PCR analyses of GCM1, hCGβ or HTRA4. […] BeWo cells were treated with or without 1 mM VPA in the presence or absence of 20 μM MG132 for 8 h and then subjected to immunoblotting analysis of GCM1 and Notch1IC. […] The EGFP-positive mock or Notch1IC-FLAG-expressing BeWo cells were transfected with the GCM1 promoter reporter plasmid E1bLUCGCM1-2K for 48 h and then subjected to luciferase assays. […] BeWo cells and ITGA6-positive term CTBs were cultured under normoxic or hypoxic conditions for 72 h and 7 days, respectively. Cells were then harvested for quantitative RT-PCR analysis of GCM1, ΔNp63α, HTRA4, hCGβ, and MKI67. Means and standard deviations obtained from three independent experiments are presented.
To study the effect of EGF and chemical inhibitors on trophoblast differentiation, BeWo cells were cultured in the complete TS medium or in the incomplete TS medium with EGF alone or the indicated chemical inhibitor(s) for 24 h. Cells were then harvested for quantitative RT-PCR or immunoblotting analysis of expression of ΔNp63α, eomesodermin (EOMES), E74-like factor 5 (ELF5) or GCM1 and its target genes.

ΔNp63α = ΔNp63α stability in JEG3 cells (FSK with or without MG132); format: cell-based, human; conditions: 50 μM FSK 24 h in presence of MG132 (FIG. 3F)
Description: FIGS. 3A to 3I show reciprocal regulation of GCM1 and ΔNp63α activities in trophoblast differentiation. […] Scramble control, ΔNp63α-knockdown or GCM1-knockdown JEG3 cells were treated with or without 50 μM FSK for 24 h and then harvested for immunoblotting and quantitative RT-PCR analyses of SYN1, hCGβ, HTRA4 proteins or transcripts. Arrowhead denotes a non-specific band recognized by ΔNp63α Ab. […] Scramble control and ΔNp63α knockdown JEG3 cells were treated with or without 50 μM FSK for 48 h, followed by immunofluorescence microscopy with E-cadherin Ab. Syncytial margins are marked with stippled line. Cell fusion was quantified by fusion index. […] Mock and ΔNp63α-FLAG-expressing BeWo cells or scramble control and ΔNp63α-knockdown JEG3 cells were subjected to immunoblotting and quantitative RT-PCR analyses of RACK1 and GATA3 proteins or transcripts. […] Scramble control or ΔNp63α-knockdown JEG3 cells were transfected with pHTRA4-1 Kb with or without pGATA3-FLAG for 48 h, followed by luciferase assays. […] WT and GCM1-KO JEG3 cells were treated with or without 50 μM FSK for 24 hours and then harvested for immunoblotting and quantitative RT-PCR analyses of GCM1, ΔNp63α, hCGβ proteins and transcripts. […] Quantitation of band intensity was performed by densitometry analysis, and the relative ΔNp63α protein level was normalized by β-actin. […]

CC(C)C[C@@H](C=O)NC(=O)[C@H](CC(C)C)NC(=O)[C@H](CC(C)C)NC(=O)OCc1ccccc1 [MG132] (Cbz-Leu-Leu-Leu-aldehyde)
VPA-mediated downregulation of GCM1 expression (BeWo cells): compromised | suppressive effect of FSK on ΔNp63α expression (ΔNp63α): counteracted
